ChEMBL document CHEMBL4477232, “Synthesis and evaluation of novel 1,2,3-triazole-based acetylcholinesterase inhibitors with neuroprotective activity” (Bioorg Med Chem Lett, 2016)
pIC50: −log10 of the molar value. Calls of active or inactive are those of the source. No cut-off for these calls is given here.

Experiments:
SH-SY5Y [1] = assay: Neuroprotective activity against amyloid beta (25 to 35 residues)-induced cell damage in human SH-SY5Y cells assessed as cell viability at 1 uM preincubated for 2 hrs followed by amyloid beta (25 to 35 residues) addition measured after 24 hrs by MTT assay (reference value: 62.3 %); format: functional; settings: for viability at 1 µM: read-out: Activity
[2] = Selectivity ratio of IC50 for equine serum BuChE to IC50 for electric eel AChE
Cholinesterase = Cholinesterase (Equus caballus, UniProt P81908); assay: Inhibition of equine serum BuChE preincubated for 6 mins followed by addition of S-butyrylthiocholine iodide by Ellman's method
Chain of Cholinesterase (P81908 whole entry, the tested form may be a part): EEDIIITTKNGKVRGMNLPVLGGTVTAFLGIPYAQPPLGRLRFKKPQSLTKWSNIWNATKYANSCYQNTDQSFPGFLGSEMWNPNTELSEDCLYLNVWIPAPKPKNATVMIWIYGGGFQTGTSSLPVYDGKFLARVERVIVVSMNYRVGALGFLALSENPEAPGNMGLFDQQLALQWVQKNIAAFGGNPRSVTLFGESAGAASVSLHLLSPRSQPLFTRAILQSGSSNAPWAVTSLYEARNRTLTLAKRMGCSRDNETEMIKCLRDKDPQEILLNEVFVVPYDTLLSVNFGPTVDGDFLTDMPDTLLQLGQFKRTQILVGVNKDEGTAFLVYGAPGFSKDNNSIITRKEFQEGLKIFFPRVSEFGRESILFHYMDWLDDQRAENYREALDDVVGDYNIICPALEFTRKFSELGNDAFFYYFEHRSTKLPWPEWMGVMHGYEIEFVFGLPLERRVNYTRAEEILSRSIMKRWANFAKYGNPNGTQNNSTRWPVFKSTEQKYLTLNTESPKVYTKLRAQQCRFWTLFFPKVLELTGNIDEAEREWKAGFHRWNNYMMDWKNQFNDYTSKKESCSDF

SH-SY5Y [3] = assay: Neuroprotective activity against amyloid beta (25 to 35 residues)-induced cell damage in human SH-SY5Y cells assessed as recovery of cell viability at 10 uM preincubated for 2 hrs followed by amyloid beta (25 to 35 residues) addition measured after 24 hrs by MTT assay; format: functional
HaCaT = assay: Cytotoxicity against human HaCaT assessed as cell viability upto 400 uM after 24 hrs by MTT assay relative to control; format: cell-based
SH-SY5Y [4] = assay: Neuroprotective activity against amyloid beta (25 to 35 residues)-induced cell damage in human SH-SY5Y cells assessed as recovery of cell viability at 1 uM preincubated for 2 hrs followed by amyloid beta (25 to 35 residues) addition measured after 24 hrs by MTT assay; format: functional
SH-SY5Y [5] = assay: Neuroprotective activity against amyloid beta (25 to 35 residues)-induced cell damage in human SH-SY5Y cells assessed as cell viability at 10 uM preincubated for 2 hrs followed by amyloid beta (25 to 35 residues) addition measured after 24 hrs by MTT assay (reference value: 62.3 %); format: functional; settings: for viability at 10 µM: read-out: Activity
NIH3T3 = assay: Cytotoxicity against mouse NIH/3T3 assessed as cell viability upto 400 uM after 24 hrs by MTT assay relative to control; format: cell-based; settings: nih3t3, 24 h
Acetylcholinesterase = Acetylcholinesterase (Electrophorus electricus, UniProt O42275); assay: Inhibition of electric eel AChE preincubated for 6 mins followed by addition of acetylthiocholine iodide by Ellman's method
Chain of Acetylcholinesterase (O42275 whole entry): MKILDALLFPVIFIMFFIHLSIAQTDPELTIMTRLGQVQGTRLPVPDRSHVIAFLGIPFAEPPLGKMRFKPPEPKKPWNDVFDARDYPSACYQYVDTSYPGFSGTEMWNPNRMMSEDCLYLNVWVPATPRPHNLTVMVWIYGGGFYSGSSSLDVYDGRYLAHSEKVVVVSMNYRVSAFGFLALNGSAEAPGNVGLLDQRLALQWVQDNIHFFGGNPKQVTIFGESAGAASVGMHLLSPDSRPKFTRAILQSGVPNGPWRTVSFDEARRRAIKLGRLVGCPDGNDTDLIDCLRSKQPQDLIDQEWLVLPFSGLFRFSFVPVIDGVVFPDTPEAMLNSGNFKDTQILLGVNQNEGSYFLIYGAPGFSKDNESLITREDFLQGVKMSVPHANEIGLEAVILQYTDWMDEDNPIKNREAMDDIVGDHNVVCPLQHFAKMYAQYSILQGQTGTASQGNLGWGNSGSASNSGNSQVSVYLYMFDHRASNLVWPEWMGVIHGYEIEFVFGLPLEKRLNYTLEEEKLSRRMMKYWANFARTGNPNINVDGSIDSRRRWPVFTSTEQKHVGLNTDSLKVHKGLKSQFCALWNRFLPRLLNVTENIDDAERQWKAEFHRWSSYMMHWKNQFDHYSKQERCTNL

Work on `Cc1ccc(-c2cn(Cc3ccc(F)c(F)c3)nn2)cc1C(=O)NCCN1CCOCC1` yielded a viability at 1 µM (SH-SY5Y [1]) of 70.3%, a Ratio IC50 [2] of 6.2 and a pIC50 (Cholinesterase) of 4.02. The Activity (SH-SY5Y [3]) was 27.1%, the Activity (HaCaT) was “Non-Toxic” and the Activity (SH-SY5Y [4]) was 8%. The viability at 10 µM (SH-SY5Y [5]) was 89.4%, the Activity (NIH3T3) was “Non-Toxic” and the pIC50 (Acetylcholinesterase) was 4.81.

`Cc1ccc(-c2cn(Cc3cccc(Cl)c3)nn2)cc1C(=O)NCCN1CCOCC1` gave a Ratio IC50 [2] of 1.1, a pIC50 (Cholinesterase) of 4.44 and a pIC50 (Acetylcholinesterase) of 4.49.

With `Cc1ccc(-c2cn(Cc3ccc(C(F)(F)F)cc3)nn2)cc1C(=O)NCCN1CCOCC1` the Activity (SH-SY5Y [1]) was “inactive”, the Activity (SH-SY5Y [3]) was 22.9% and the Activity (SH-SY5Y [4]) was “inactive”. It also gave a viability at 10 µM (SH-SY5Y [5]) of 85.2% and a pIC50 (Acetylcholinesterase) of 4.56.

Compound `COC(=O)/C=C/c1ccc(Cn2cc(-c3ccc(C)c(C(=O)NCCN4CCOCC4)c3)nn2)cc1` has a Ratio IC50 [2] of 2, a pIC50 (Cholinesterase) of 4.04 and a pIC50 (Acetylcholinesterase) of 4.35.

Compound `Cc1ccc(-c2cn(Cc3ccc4ccccc4c3)nn2)cc1C(=O)NCCN1CCOCC1` has a viability at 1 µM (SH-SY5Y [1]) of 77.9%, a Ratio IC50 [2] of 12.6 and a pIC50 (Cholinesterase) of 4.04. The Activity (SH-SY5Y [3]) was 34.2%, the Activity (HaCaT) was “Non-Toxic” and the Activity (SH-SY5Y [4]) was 15.6%. The viability at 10 µM (SH-SY5Y [5]) was 96.5%, the Activity (NIH3T3) was “Non-Toxic” and the pIC50 (Acetylcholinesterase) was 5.14.

`Cc1ccc(-c2cn(Cc3ccccc3Cl)nn2)cc1C(=O)NCCN1CCOCC1` showed a Ratio IC50 [2] of 1.1, a pIC50 (Cholinesterase) of 4.46 and a pIC50 (Acetylcholinesterase) of 4.50.

For `Cc1ccc(-c2cn(Cc3ccc(F)cc3Br)nn2)cc1C(=O)NCCN1CCOCC1`, the Ratio IC50 [2] was 2.3, the pIC50 (Cholinesterase) was 4.15 and the pIC50 (Acetylcholinesterase) was 4.50.

In the case of `Cc1ccc(-c2cn(Cc3ccc(F)cc3F)nn2)cc1C(=O)NCCN1CCOCC1`, the Ratio IC50 [2] was 3.7, the pIC50 (Cholinesterase) was 4.05 and the pIC50 (Acetylcholinesterase) was 4.61.

With `Cc1ccc(Cn2cc(-c3ccc(C)c(C(=O)NCCN4CCOCC4)c3)nn2)cc1` the Ratio IC50 [2] was 1.4, the pIC50 (Cholinesterase) was 4.08 and the pIC50 (Acetylcholinesterase) was 4.22.

In the case of `Cc1ccc(-c2cn(Cc3cccc(F)c3)nn2)cc1C(=O)NCCN1CCOCC1`, the Ratio IC50 [2] was 1.2, the pIC50 (Cholinesterase) was 4.22 and the pIC50 (Acetylcholinesterase) was 4.52.

`COc1ccc(Br)c(Cn2cc(-c3ccc(C)c(C(=O)NCCN4CCOCC4)c3)nn2)c1` showed a Ratio IC50 [2] of 1.2, a pIC50 (Cholinesterase) of 4.29 and a pIC50 (Acetylcholinesterase) of 4.39.

In the case of `Cc1ccc(-c2cn(Cc3cccc4ccccc34)nn2)cc1C(=O)NCCN1CCOCC1`, the Ratio IC50 [2] was 1.58, the pIC50 (Cholinesterase) was 4.14 and the pIC50 (Acetylcholinesterase) was 4.34.

For `Cc1ccc(-c2cn(Cc3ccc(F)cc3Cl)nn2)cc1C(=O)NCCN1CCOCC1`, the Ratio IC50 [2] was 6.6, the pIC50 (Cholinesterase) was 4.16 and the Activity (SH-SY5Y [3]) was “inactive”. The Activity (SH-SY5Y [5]) was “inactive” and the pIC50 (Acetylcholinesterase) was 4.98.

`Cc1ccc(-c2cn(Cc3ccccc3Br)nn2)cc1C(=O)NCCN1CCOCC1` showed a Ratio IC50 [2] of 2.2, a pIC50 (Cholinesterase) of 4.10 and a pIC50 (Acetylcholinesterase) of 4.45.

For `Cc1ccc(-c2cn(C)nn2)cc1C(=O)NCCN1CCOCC1`, the Ratio IC50 [2] was 1.5, the pIC50 (Cholinesterase) was 4.17 and the pIC50 (Acetylcholinesterase) was 4.34.

Work on `Cc1ccc(-c2cn(Cc3ccccc3F)nn2)cc1C(=O)NCCN1CCOCC1` yielded a Ratio IC50 [2] of 2, a pIC50 (Cholinesterase) of 4.33 and a pIC50 (Acetylcholinesterase) of 4.41.

Work on `Cc1ccc(-c2cn(Cc3cccc(Br)c3)nn2)cc1C(=O)NCCN1CCOCC1` yielded a Ratio IC50 [2] of 2, a pIC50 (Cholinesterase) of 4.39 and a pIC50 (Acetylcholinesterase) of 4.55.

In the case of `Cc1ccc(-c2cn(Cc3ccc(S(N)(=O)=O)cc3)nn2)cc1C(=O)NCCN1CCOCC1`, the Ratio IC50 [2] was 1.5, the pIC50 (Cholinesterase) was 4.34 and the pIC50 (Acetylcholinesterase) was 4.52.

Work on `Cc1ccc(-c2cn(Cc3ccc([N+](=O)[O-])cc3)nn2)cc1C(=O)NCCN1CCOCC1` yielded a Ratio IC50 [2] of 2.9, a pIC50 (Cholinesterase) of 4.22 and a pIC50 (Acetylcholinesterase) of 4.69.

Work on `Cc1ccc(-c2cn(Cc3ccc(Br)cc3)nn2)cc1C(=O)NCCN1CCOCC1` yielded a Ratio IC50 [2] of 2.2, a pIC50 (Cholinesterase) of 4.34 and a pIC50 (Acetylcholinesterase) of 4.69.

Work on `C#Cc1ccc(C)c(C(=O)NCCN2CCOCC2)c1` yielded a pIC50 (Acetylcholinesterase) of less than 4.00.

For `Cc1ccc(-c2cn(Cc3ccc(OC(F)(F)F)cc3)nn2)cc1C(=O)NCCN1CCOCC1`, the Ratio IC50 [2] was 2, the pIC50 (Cholinesterase) was 4.22 and the pIC50 (Acetylcholinesterase) was 4.52.

`Cc1ccc(-c2cn(Cc3ccccc3C(F)(F)F)nn2)cc1C(=O)NCCN1CCOCC1` showed a Ratio IC50 [2] of 1.3, a pIC50 (Cholinesterase) of 4.35 and a pIC50 (Acetylcholinesterase) of 4.47.

`O=C(O[C@@H]1Cc2c(O)cc(O)cc2O[C@@H]1c1cc(O)c(O)c(O)c1)c1cc(O)c(O)c(O)c1` [EPIGALOCATECHIN GALLATE] showed an Activity (SH-SY5Y [3]) of 33.4% and a viability at 10 µM (SH-SY5Y [5]) of 95.7%.

`Cc1ccc(-c2cn(Cc3ccc(F)c([N+](=O)[O-])c3)nn2)cc1C(=O)NCCN1CCOCC1` showed a Ratio IC50 [2] of 1.2, a pIC50 (Cholinesterase) of 4.46 and a pIC50 (Acetylcholinesterase) of 4.52.

`Cc1ccc(-c2cn(Cc3ccc(F)cc3)nn2)cc1C(=O)NCCN1CCOCC1` gave a Ratio IC50 [2] of 2.1, a pIC50 (Cholinesterase) of 4.36 and a pIC50 (Acetylcholinesterase) of 4.67.

Compound `Cc1cc(F)ccc1Cn1cc(-c2ccc(C)c(C(=O)NCCN3CCOCC3)c2)nn1` has a Ratio IC50 [2] of 1.6, a pIC50 (Cholinesterase) of 4.21 and a pIC50 (Acetylcholinesterase) of 4.43.

For `COC(=O)c1ccc(Cn2cc(-c3ccc(C)c(C(=O)NCCN4CCOCC4)c3)nn2)cc1`, the Ratio IC50 [2] was 1.8, the pIC50 (Cholinesterase) was 4.17 and the pIC50 (Acetylcholinesterase) was 4.42.

Compound `Cc1cc(C)cc(Cn2cc(-c3ccc(C)c(C(=O)NCCN4CCOCC4)c3)nn2)c1` has a Ratio IC50 [2] of 0.9, a pIC50 (Cholinesterase) of 4.25 and a pIC50 (Acetylcholinesterase) of 4.19.

In the case of `Cc1ccc(-c2cn(Cc3ccc(C#N)cc3)nn2)cc1C(=O)NCCN1CCOCC1`, the Activity (SH-SY5Y [1]) was “inactive”, the Ratio IC50 [2] was 7.6 and the pIC50 (Cholinesterase) was 4.03. For the same compound, the Activity (SH-SY5Y [3]) was 16.6%, the Activity (HaCaT) was “Non-Toxic” and the Activity (SH-SY5Y [4]) was “inactive”. For the same compound, the viability at 10 µM (SH-SY5Y [5]) was 78.9%, the Activity (NIH3T3) was “Non-Toxic” and the pIC50 (Acetylcholinesterase) was 4.92.
